Measurements as given in patent publication US20210290648A1, “Potentiation of B-Lactam Antibiotics and B-Lactam/B-Lactamase Inhibitor Combinations Against Multidrug and Extensively Drug-Resistant Pseudomonas Aeruginosa Using Non-Ribosomal Tobramycin-Cyclam Conjugates” (University of Manitoba, priority 2018, published 2021).

Tested on: WT P. aeruginosa PAO1
Assay: Checkerboard combination study / MIC
Format: cell-based, Pseudomonas aeruginosa
Settings: for MIC: Pseudomonas aeruginosa, PAO1, 18 h, antibiotic alone, WT PAO1 (Table 2), read-out: MIC alone; for FICI in the presence of ≤10 μM of 1: antibiotic + compound 1; for MIC of Antibiotics in the presence of ≤10 μM of 1: antibiotic + compound 1 ≤10 μM; for FICI in the presence of ≤10 μM of 2: antibiotic + compound 2; for MIC of Antibiotics in the presence of ≤10 μM of 2: antibiotic + compound 2 ≤10 μM; for FICI in the presence of ≤10 μM of 3: antibiotic + compound 3; for MIC of Antibiotics in the presence of ≤10 μM of 3: antibiotic + compound 3 ≤10 μM

| MIC | MIC of Antibiotics in the presence of ≤10 μM of 1 (WT PAO1) | MIC of Antibiotics in the presence of ≤10 μM of 2 (WT PAO1) | MIC of Antibiotics in the presence of ≤10 μM of 3 (WT PAO1) | Structure (SMILES) | FICI in the presence of ≤10 μM of 1 (WT PAO1) | FICI in the presence of ≤10 μM of 2 (WT PAO1) | FICI in the presence of ≤10 μM of 3 (WT PAO1) | FICI with compounds 1-3 (antibiotic + compounds 1-3 at ≤10 μM (≤16 μg/mL), WT PAO1) |
| --- | --- | --- | --- | --- | --- | --- | --- | --- |
| 8 µg/mL | 2 µg/mL | 2 µg/mL | 1 µg/mL | CN(C)c1ccc(O)c2c1C[C@H]1C[C@H]3[C@H](N(C)C)C(O)=C(C(N)=O)C(=O)[C@@]3(O)C(O)=C1C2=O [Minocycline] | 0.25 | 0.25 | 0.17 | – |
| 512 µg/mL | 64 µg/mL | 64 µg/mL | 32 µg/mL | CO[C@@H]1[C@@H](OC(N)=O)[C@@H](O)[C@H](Oc2ccc3c(O)c(NC(=O)c4ccc(O)c(CC=C(C)C)c4)c(=O)oc3c2C)OC1(C)C [Novobiocin] | 0.13 | 0.13 | 0.08 | 0.08-0.13 |
| 1 µg/mL | 1 µg/mL | 0.5 µg/mL | 1 µg/mL | COc1c(N2C[C@@H]3CCCN[C@@H]3C2)c(F)cc2c(=O)c(C(=O)O)cn(C3CC3)c12 [Moxifloxacin] | 1.00 | 0.51 | 1.01 | – |
| 32 µg/mL | 8 µg/mL | 4 µg/mL | 8 µg/mL | O=C(N[C@H](CO)[C@H](O)c1ccc([N+](=O)[O-])cc1)C(Cl)Cl [Chloramphenicol] | 0.25 | 0.13 | 0.25 | – |
